According to PubChem BioAssay (NCI):
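Interpolation was linear, between the two tested concentrations surrounding the appropriate level; five concentrations were tested over 48 hours in 96-well plates. At the TGI there is no net growth.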

Columns and labels:
Test in all cases: NCI tumour cell line growth inhibition, 48 h
HCT-116 colon = test system: HCT-116 colon
OVCAR-4 ovarian = test system: OVCAR-4 ovarian
U251 CNS = test system: U251 CNS
EKVX NSCLC = test system: EKVX NSCLC
LOX IMVI melanoma = test system: LOX IMVI melanoma
NCI-H460 lung = test system: NCI-H460 lung
IGROV1 ovarian = test system: IGROV1 ovarian
HCT-15 colon = test system: HCT-15 colon
BT-549 breast = test system: BT-549 breast
786-0 renal = test system: 786-0 renal
SF-539 CNS = test system: SF-539 CNS
KM12 colon = test system: KM12 colon
MALME-3M melanoma = test system: MALME-3M melanoma
NCI-H23 lung = test system: NCI-H23 lung
UACC-257 melanoma = test system: UACC-257 melanoma
HL-60(TB) leukemia = test system: HL-60(TB) leukemia
OVCAR-3 ovarian = test system: OVCAR-3 ovarian
MOLT-4 leukemia = test system: MOLT-4 leukemia
MDA-N = test system: MDA-N
SNB-75 CNS = test system: SNB-75 CNS
MDA-MB-231 breast = test system: MDA-MB-231 breast
SK-MEL-5 melanoma = test system: SK-MEL-5 melanoma
HOP-62 NSCLC = test system: HOP-62 NSCLC
OVCAR-5 ovarian = test system: OVCAR-5 ovarian
NCI-H226 lung = test system: NCI-H226 lung
DU-145 prostate = test system: DU-145 prostate
SK-MEL-28 melanoma = test system: SK-MEL-28 melanoma
K-562 leukemia = test system: K-562 leukemia
NCI-H522 lung = test system: NCI-H522 lung
OVCAR-8 ovarian = test system: OVCAR-8 ovarian
RXF 393 renal = test system: RXF 393 renal
CCRF-CEM leukemia = test system: CCRF-CEM leukemia
SW-620 colon = test system: SW-620 colon
A498 renal = test system: A498 renal
SF-295 CNS = test system: SF-295 CNS
ACHN renal = test system: ACHN renal
A549 NSCLC = test system: A549 NSCLC
PC-3 prostate = test system: PC-3 prostate
HCC-2998 colon = test system: HCC-2998 colon
SR leukemia = test system: SR leukemia
SF-268 CNS = test system: SF-268 CNS
TK-10 renal = test system: TK-10 renal
HT29 colon = test system: HT29 colon
HS 578T breast = test system: HS 578T breast
CAKI-1 renal = test system: CAKI-1 renal
MCF7 breast = test system: MCF7 breast
RPMI-8226 leukemia = test system: RPMI-8226 leukemia
HOP-92 NSCLC = test system: HOP-92 NSCLC
UO-31 renal = test system: UO-31 renal
SN12C renal = test system: SN12C renal
UACC-62 melanoma = test system: UACC-62 melanoma
SK-OV-3 ovarian = test system: SK-OV-3 ovarian
NCI/ADR-RES ovarian = test system: NCI/ADR-RES ovarian
COLO 205 colon = test system: COLO 205 colon
MDA-MB-435 = test system: MDA-MB-435
M14 melanoma = test system: M14 melanoma
SK-MEL-2 melanoma = test system: SK-MEL-2 melanoma
SNB-19 CNS = test system: SNB-19 CNS

Measured: TGI

O=C(c1cc(Cl)ccc1Cl)N1CCN(c2ccc(Cl)c(Cl)c2)CC1
33.8 µM: UO-31 renal
54.1 µM: RXF 393 renal
45.5 µM: OVCAR-8 ovarian
30.3 µM: SK-MEL-5 melanoma
97.8 µM: PC-3 prostate
> 100 µM: HCT-116 colon | OVCAR-4 ovarian | U251 CNS | EKVX NSCLC | IGROV1 ovarian | HCT-15 colon | MALME-3M melanoma | NCI-H23 lung | HL-60(TB) leukemia | OVCAR-3 ovarian | SNB-75 CNS | MDA-MB-231 breast | HOP-62 NSCLC | OVCAR-5 ovarian | NCI-H226 lung | DU-145 prostate | SK-MEL-28 melanoma | CCRF-CEM leukemia | SW-620 colon | SF-295 CNS | ACHN renal | A549 NSCLC | HCC-2998 colon | SR leukemia | SF-268 CNS | TK-10 renal | HS 578T breast | CAKI-1 renal | RPMI-8226 leukemia | HOP-92 NSCLC | SN12C renal
85.4 µM: K-562 leukemia
44.1 µM: A498 renal
52.6 µM: NCI-H522 lung
48.5 µM: 786-0 renal
72 µM: MCF7 breast
83.9 µM: UACC-257 melanoma | HT29 colon
36.1 µM: NCI-H460 lung
54.3 µM: MOLT-4 leukemia
96.2 µM: MDA-N
84.1 µM: LOX IMVI melanoma
76.4 µM: SF-539 CNS
51.9 µM: KM12 colon
80.8 µM: BT-549 breast

Cc1cc(-c2ccc[nH]2)on1
> 100 µM: HCT-116 colon | OVCAR-4 ovarian | U251 CNS | EKVX NSCLC | NCI-H460 lung | IGROV1 ovarian | HCT-15 colon | BT-549 breast | UACC-62 melanoma | SK-OV-3 ovarian | 786-0 renal | NCI/ADR-RES ovarian | COLO 205 colon | KM12 colon | MALME-3M melanoma | NCI-H23 lung | UACC-257 melanoma | OVCAR-3 ovarian | MOLT-4 leukemia | MDA-N | SNB-75 CNS | MDA-MB-231 breast | SK-MEL-5 melanoma | HOP-62 NSCLC | OVCAR-5 ovarian | DU-145 prostate | SK-MEL-28 melanoma | K-562 leukemia | MDA-MB-435 | NCI-H522 lung | M14 melanoma | SK-MEL-2 melanoma | OVCAR-8 ovarian | RXF 393 renal | CCRF-CEM leukemia | SW-620 colon | A498 renal | SF-295 CNS | ACHN renal | A549 NSCLC | PC-3 prostate | HCC-2998 colon | SF-268 CNS | TK-10 renal | HT29 colon | SNB-19 CNS | HS 578T breast | CAKI-1 renal | MCF7 breast | RPMI-8226 leukemia | HOP-92 NSCLC | UO-31 renal

CC(C)CC(NC(=O)C(CSc1ccc([N+](=O)[O-])cc1)Cc1ccccc1)C(=O)Nc1ccccc1 (stereo not given)
> 100 µM: HCT-116 colon | OVCAR-4 ovarian | U251 CNS | EKVX NSCLC | LOX IMVI melanoma | NCI-H460 lung | IGROV1 ovarian | HCT-15 colon | UACC-62 melanoma | SK-OV-3 ovarian | 786-0 renal | NCI/ADR-RES ovarian | SF-539 CNS | COLO 205 colon | KM12 colon | NCI-H23 lung | UACC-257 melanoma | HL-60(TB) leukemia | OVCAR-3 ovarian | MOLT-4 leukemia | MDA-N | MDA-MB-231 breast | SK-MEL-5 melanoma | OVCAR-5 ovarian | DU-145 prostate | SK-MEL-28 melanoma | K-562 leukemia | MDA-MB-435 | NCI-H522 lung | M14 melanoma | SK-MEL-2 melanoma | OVCAR-8 ovarian | RXF 393 renal | CCRF-CEM leukemia | SW-620 colon | A498 renal | SF-295 CNS | ACHN renal | A549 NSCLC | PC-3 prostate | HCC-2998 colon | SR leukemia | TK-10 renal | SNB-19 CNS | CAKI-1 renal | MCF7 breast | RPMI-8226 leukemia | HOP-92 NSCLC | UO-31 renal | SN12C renal
65.1 µM: SNB-75 CNS
80.5 µM: MALME-3M melanoma
59.5 µM: BT-549 breast
